Key:
[1] = tested on: MAGL-Nluc fusion protein; assay: Competition nanoBRET assay in live HEK293 cells with probe 4a as tracer; type: cell-based; conditions: tracer 4a (100 nM), read-out: cellular IC50
Experimental: In vitro MAGL Inhibition Assay
Compounds were profiled for MAGL inhibitory activity by determining the enzymatic activity by following the hydrolysis of the natural substrate 2-arachidonoylglycerol (2-AG), resulting in arachidonic acid, which can be followed by mass spectrometry. The 2-AG assay was carried out in 384 well assay plates (PP, Greiner Cat# 784201) in a total volume of 20 µL. Compound dilutions were made in 100% DMSO (VWR Chemicals 23500.297) in a polypropylene plate in 3-fold dilution steps to give a final concentration range in the assay from 12.5 µM to 0.8 pM. […] The activity of the compounds was calculated based on the ratio of intensities [arachidonic acid / d8-arachidonic acid]. […]
A HEK293A stable cell line expressing NanoLuc_MAGL was established at Roche and assigned as HEK293A_NanoLuc_MAGL clone #43. […] The introduction of competing compounds results in a dose -dependent decrease in NanoBRET™ energy transfer, which allows quantification of the intracellular affinity of the target protein for the test compound.
HEK293A_NanoLuc_MAGL clone #43 cells were cultured in DMEM (Gibco 31966) with 10% FBS and 800 ug/ml G418. […] After 2 hours of incubation, Nanoluciferase substrates and extracellular inhibitors were added following the manufacturer's protocol (Promega, #N2520), and the NanoBRET signaling were quantified with the Paradigm (Molecular Devices).

[2] = target: T1, MAGL (Homo sapiens, UniProt Q99685); assay: ABPP target occupancy in patient-derived PBMCs; type: cell-based; design: native, human patient-derived peripheral blood monocytes (PBMCs); endogenous in cells; host or cells: human PBMCs from buffy coats
T1 sequence (Q99685 1-303): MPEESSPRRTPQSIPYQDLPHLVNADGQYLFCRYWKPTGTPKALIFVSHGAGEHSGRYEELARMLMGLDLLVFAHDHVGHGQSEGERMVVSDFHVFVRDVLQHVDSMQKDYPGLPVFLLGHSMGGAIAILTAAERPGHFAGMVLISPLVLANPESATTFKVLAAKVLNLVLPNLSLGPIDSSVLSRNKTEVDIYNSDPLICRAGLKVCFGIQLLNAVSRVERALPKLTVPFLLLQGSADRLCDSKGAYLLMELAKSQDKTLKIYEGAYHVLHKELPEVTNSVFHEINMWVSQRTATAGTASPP
Experimental: minutes at RT. Subsequently, 0.5 µL MB064 (40x stock in DMSO) was added to the proteome sample, vortexed briefly, and incubated for 10 minutes at RT, after which 0.5 µL FP-Bodipy-FL (40x stock in DMSO) was added, vortexed briefly and incubated for 10 minutes at RT. The final volume was 20 - 20.5 µL (5 - 7.5% DMSO). The reaction was quenched by the addition of 7.5 µL of 4*Laemmli-buffer (final concentrations: 60 mM Tris (pH 6.8), 2% (w/v) SDS, 10% (v/v) glycerol, 1.25% (v/v) β-mercaptoethanol, 0.01% (v/v) bromophenol blue). 10 µL (14 µg protein) of the quenched reaction mixture was resolved on 10% acrylamide SDS-PAGE (180 V, 75 min). Fluorescence was measured using a Biorad ChemiDoc MP system (fluorescence channels Cy2, Cy3, Cy5). Gels were then stained using coomassie staining and imaged for protein loading control. Labeling of the respective proteins via MB064 and FP-BODIPY was visualized in two separate channels. […]
PBMCs were thawed, washed with 1 x PBS and equal amounts of cells were exposed to DMSO (D2650; Sigma-Aldrich) or MAGL inhibitor PF (PF-06795071) in DMSO for 30 min at room temperature with concentrations ranging from 1 nM to 1000 nM. […] Samples were then separated by SDS-PAGE and bands were detected ChemiDoc Imager (Bio-Rad Laboratories). […] Gels were imaged and protein bands were quantified using Image Lab software (Bio-Rad Laboratories).

[3] = target: T1, MAGL; design: method as in earlier work; conditions: Table S2, literature compounds; ref (1), (6)-(12) as indicated per compound; cited from earlier work
[4] = target: T1, MAGL; assay: Competitive FP binding assay with probe 5 as tracer; conditions: 5 (20 nM), hMAGL (50 nM), irreversible inhibitors time-dependent

IC50 [1]: 1600 nM | loss of MAGL activity ([2]; 1 nM): 40% | loss of MAGL activity ([2]; 10 nM): 93% | Ki [4]: 12.8 ± 3.9 nM
Structure (SMILES): O=C(O[C@H](CO)C(F)(F)F)N1C[C@@H]2C(c3ccn(-c4ccc(F)cc4)n3)[C@@H]2C1 (some centres unmarked) [PF-06795071]
IC50 [3]: 3 nM

— article PMC11951083, “Highly Specific Miniaturized Fluorescent Monoacylglycerol Lipase Probes Enable Translational Research” (Journal of the American Chemical Society, 2025)
